This note sets out measurements from US20230381142A1, “ANTILEISHMANIAL COMPOUNDS, COMPOSITIONS AND USE THEREOF” (TRUSTEES OF BOSTON UNIVERSITY, priority 2022, published 2023).

A short description of series [1]: Mouse microsomal stability. Type of series: in vitro ADME. The conditions noted are these: mouse liver microsomes. The protocol: Mouse microsomal stability assays were performed as described. Test compound (0.5 μM) was incubated with female CD1 mouse (Xenotech) liver microsomes and their action started with addition of excess NADPH (8 mg/mL 50 mM potassium phosphate buffer, pH 7.4). Aliquots (50 μL) of the incubation mixture were removed immediately (at time 0) and at 3, 6, 9, 15, and 30 min and mixed with acetonitrile (100 μL) to stop the reaction. Internal standard was added to all samples, the samples were centrifuged to sediment precipitated protein, and the plates were then sealed prior to UPLC-MS/MS analysis using a Quattro Premier XE (Waters Corporation, USA). XLfit (IDBS, UK) was used to calculate the exponential decay and consequently the rate constant (k) from the ratio of the peak area of test compound to internal standard at each time point. The rate of intrinsic clearance (Cli) of each test compound was then calculated using the equation Cli (mL/min/g liver)=k×V×microsomal protein yield, where V (mL/mg protein) is the incubation volume/mg protein added and microsomal protein yield is taken as 52.5 mg protein/g liver. Verapamil (0.5 μM) was used as a positive control to confirm acceptable assay performance.
(In general: Microsomes from liver hold many membrane-bound enzymes, among them those of drug oxidation.)

A short description of series [2]: Whole blood stability. The series is classed as in vitro ADME. The conditions noted are these: criterion: no % reduction over 120 min.
Series [3] is described as follows: UCSD infection assay, host cell cytotoxicity (CC50). Type of series: cell-based. The conditions noted are these: host macrophages infected with L. donovani; cytotoxicity against host macrophages.

The CC50 is the concentration giving 50% cytotoxicity. Low values mean greater toxicity to the cells, high ones lower toxicity to the cells. `COc1ccc(N2C(=O)c3[nH]nc(CC(C)C)c3C2c2ccc(F)cc2)cc1` (racemic) [Compound 1, 4-(4-fluorophenyl)-3-isobutyl-5-(4-methoxyphenyl)-4,5-dihydropyrrolo[3,4-c]pyrazol-6(1H)-one]: the half-life at 0.5 μM in series [1] (female, CD1, pH 7.4, read-out: Microsomal stability (mouse) t1/2) was > 20 min. The “Microsomal stability (mouse) Clint” value in series [1] is given as “Clint < 3.4 mL/min/g”. In series [2], the Whole blood stability entry was “Pass”. In addition, the CC50 at 72 h in series [3] is > 20 µM.
